Test results taken from patent US20050004017A1, “Methods and compositions for treating hcap associated diseases” (priority 2001, published 2005).

Tested on: HCAP interaction with ErbB-2
Assay: Co-immunoprecipitation of HCAP with anti-ErbB-2 antibody from radicicol-treated T47D cells
Format: cell-based
Details: T47D cells treated with radicicol (3 μM) for 0, 3 or 6 hours; gel electrophoresis, bands identified by mass spectroscopy
Experimental: Band numbers 30 and 35 were identified by mass spectroscopic analysis as hepatocellular associated protein (HCAP). […] T47D cells, a breast cancer cell line that is mutant for the p53 tumor suppressor gene and ErbB-2 positive, were treated with radicicol (RA) for 0, 3 or 6 hours, and then proteins were immunoprecipitated using an anti-ErbB-2 antibody and resolved by gel electrophoresis. […] Band nos. 30 and 35 were identified by mass spectroscopic analysis to be hepatocarcinoma associated protein (HCAP). The amount of HCAP immunoprecipitated with anti-ErbB-2 antibody decreased in the presence of RA.

## C[C@@H]1C[C@H]2O[C@@H]2/C=C\C=C\C(=O)Cc2c(Cl)c(O)cc(O)c2C(=O)O1 [radicicol, Radicicol]
  amount of HCAP immunoprecipitated with anti-ErbB-2 antibody: decreased
